Data: ChEMBL document CHEMBL3991601, “The target landscape of clinical kinase drugs” (Science, 2017)
Calls of active or inactive are those of the source.

Tests used:
Obg-like ATPase 1 = Obg-like ATPase 1 (Homo sapiens, UniProt Q9NTK5)
[1] = biological target: DnaJ homolog subfamily A member 1 (Homo sapiens, UniProt P31689)
[2] = biological target: T1, Succinate--CoA ligase [ADP-forming] subunit beta, mitochondrial (Homo sapiens, UniProt Q9P2R7)
T1 sequence (Q9P2R7 whole entry): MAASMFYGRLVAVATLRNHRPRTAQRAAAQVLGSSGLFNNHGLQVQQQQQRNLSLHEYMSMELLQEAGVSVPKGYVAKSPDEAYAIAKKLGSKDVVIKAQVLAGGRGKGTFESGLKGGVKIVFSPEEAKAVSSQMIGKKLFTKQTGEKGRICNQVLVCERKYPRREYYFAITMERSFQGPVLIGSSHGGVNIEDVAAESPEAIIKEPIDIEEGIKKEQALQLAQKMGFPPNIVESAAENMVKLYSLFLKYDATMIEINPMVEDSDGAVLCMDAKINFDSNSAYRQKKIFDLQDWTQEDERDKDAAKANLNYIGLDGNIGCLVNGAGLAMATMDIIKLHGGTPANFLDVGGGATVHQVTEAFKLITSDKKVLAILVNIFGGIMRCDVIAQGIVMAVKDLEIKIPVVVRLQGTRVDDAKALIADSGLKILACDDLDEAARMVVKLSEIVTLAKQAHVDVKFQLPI

[3] = biological target: T2, Serine/threonine-protein kinase Nek9 (Homo sapiens, UniProt Q8TD19)
T2 sequence (Q8TD19 whole entry): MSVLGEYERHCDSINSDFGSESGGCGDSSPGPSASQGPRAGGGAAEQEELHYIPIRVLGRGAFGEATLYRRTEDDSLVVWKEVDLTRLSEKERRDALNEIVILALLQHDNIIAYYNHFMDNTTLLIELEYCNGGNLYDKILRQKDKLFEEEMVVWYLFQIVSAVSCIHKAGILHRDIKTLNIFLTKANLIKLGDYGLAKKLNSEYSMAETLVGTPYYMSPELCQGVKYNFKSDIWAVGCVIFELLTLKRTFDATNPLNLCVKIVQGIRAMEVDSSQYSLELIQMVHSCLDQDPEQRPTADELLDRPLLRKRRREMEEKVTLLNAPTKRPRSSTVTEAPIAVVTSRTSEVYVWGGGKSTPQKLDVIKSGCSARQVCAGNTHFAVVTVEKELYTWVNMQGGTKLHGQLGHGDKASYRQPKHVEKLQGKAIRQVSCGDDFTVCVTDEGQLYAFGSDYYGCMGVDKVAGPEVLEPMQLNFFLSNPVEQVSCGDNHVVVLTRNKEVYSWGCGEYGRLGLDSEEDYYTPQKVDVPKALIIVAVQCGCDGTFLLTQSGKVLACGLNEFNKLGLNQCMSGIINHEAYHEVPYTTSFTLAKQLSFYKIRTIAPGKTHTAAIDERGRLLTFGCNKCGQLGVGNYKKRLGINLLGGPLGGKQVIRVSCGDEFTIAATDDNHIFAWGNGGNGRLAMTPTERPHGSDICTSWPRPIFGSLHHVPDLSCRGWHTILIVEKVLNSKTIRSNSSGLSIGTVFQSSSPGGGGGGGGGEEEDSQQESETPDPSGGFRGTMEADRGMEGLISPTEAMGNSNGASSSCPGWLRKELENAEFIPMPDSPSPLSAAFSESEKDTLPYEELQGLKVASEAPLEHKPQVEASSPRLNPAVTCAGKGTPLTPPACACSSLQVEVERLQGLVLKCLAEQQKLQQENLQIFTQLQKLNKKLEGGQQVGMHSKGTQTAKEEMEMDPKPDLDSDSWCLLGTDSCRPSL

[4] = biological target: Guanine nucleotide-binding protein G(i) subunit alpha-2 (Homo sapiens, UniProt P04899)
[5] = biological target: Citron Rho-interacting kinase (Homo sapiens, UniProt O14578)
[6] = biological target: T3, Adenine phosphoribosyltransferase (Homo sapiens, UniProt P07741)
T3 sequence (P07741 whole entry): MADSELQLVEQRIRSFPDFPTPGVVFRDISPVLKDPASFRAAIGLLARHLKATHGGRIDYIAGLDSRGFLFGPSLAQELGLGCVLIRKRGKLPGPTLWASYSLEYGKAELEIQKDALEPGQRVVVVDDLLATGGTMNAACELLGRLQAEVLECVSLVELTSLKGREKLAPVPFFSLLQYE

[7] = biological target: T4, EKC/KEOPS complex subunit TP53RK (Homo sapiens, UniProt Q96S44)
T4 sequence (Q96S44 whole entry): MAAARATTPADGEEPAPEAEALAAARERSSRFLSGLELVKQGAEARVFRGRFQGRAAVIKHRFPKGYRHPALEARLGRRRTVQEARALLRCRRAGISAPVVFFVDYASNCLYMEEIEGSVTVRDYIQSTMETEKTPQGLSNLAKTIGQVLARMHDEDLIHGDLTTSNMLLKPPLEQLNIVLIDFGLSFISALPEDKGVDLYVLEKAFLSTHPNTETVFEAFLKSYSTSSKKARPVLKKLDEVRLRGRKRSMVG

Ephrin type-A receptor 2 = Ephrin type-A receptor 2 (Homo sapiens, UniProt P29317)
Actin-related protein 2 = Actin-related protein 2 (Homo sapiens, UniProt P61160)
LIM domain kinase 2 = LIM domain kinase 2 (Homo sapiens, UniProt P53671)
Note: in the data inactive means no Kd found up to 30 µM.

Chain of Obg-like ATPase 1 (Q9NTK5 whole entry, looked up): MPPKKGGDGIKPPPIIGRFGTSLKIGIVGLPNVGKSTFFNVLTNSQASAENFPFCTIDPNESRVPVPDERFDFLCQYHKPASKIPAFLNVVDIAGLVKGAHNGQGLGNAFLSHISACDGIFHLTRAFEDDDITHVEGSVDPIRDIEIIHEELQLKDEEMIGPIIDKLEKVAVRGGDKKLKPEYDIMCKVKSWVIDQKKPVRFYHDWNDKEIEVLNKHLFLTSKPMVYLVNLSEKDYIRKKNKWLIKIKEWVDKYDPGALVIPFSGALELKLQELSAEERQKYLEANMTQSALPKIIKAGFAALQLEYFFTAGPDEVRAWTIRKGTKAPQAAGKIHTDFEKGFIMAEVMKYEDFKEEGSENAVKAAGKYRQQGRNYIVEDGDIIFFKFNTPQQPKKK
Chain of Citron Rho-interacting kinase (O14578 whole entry): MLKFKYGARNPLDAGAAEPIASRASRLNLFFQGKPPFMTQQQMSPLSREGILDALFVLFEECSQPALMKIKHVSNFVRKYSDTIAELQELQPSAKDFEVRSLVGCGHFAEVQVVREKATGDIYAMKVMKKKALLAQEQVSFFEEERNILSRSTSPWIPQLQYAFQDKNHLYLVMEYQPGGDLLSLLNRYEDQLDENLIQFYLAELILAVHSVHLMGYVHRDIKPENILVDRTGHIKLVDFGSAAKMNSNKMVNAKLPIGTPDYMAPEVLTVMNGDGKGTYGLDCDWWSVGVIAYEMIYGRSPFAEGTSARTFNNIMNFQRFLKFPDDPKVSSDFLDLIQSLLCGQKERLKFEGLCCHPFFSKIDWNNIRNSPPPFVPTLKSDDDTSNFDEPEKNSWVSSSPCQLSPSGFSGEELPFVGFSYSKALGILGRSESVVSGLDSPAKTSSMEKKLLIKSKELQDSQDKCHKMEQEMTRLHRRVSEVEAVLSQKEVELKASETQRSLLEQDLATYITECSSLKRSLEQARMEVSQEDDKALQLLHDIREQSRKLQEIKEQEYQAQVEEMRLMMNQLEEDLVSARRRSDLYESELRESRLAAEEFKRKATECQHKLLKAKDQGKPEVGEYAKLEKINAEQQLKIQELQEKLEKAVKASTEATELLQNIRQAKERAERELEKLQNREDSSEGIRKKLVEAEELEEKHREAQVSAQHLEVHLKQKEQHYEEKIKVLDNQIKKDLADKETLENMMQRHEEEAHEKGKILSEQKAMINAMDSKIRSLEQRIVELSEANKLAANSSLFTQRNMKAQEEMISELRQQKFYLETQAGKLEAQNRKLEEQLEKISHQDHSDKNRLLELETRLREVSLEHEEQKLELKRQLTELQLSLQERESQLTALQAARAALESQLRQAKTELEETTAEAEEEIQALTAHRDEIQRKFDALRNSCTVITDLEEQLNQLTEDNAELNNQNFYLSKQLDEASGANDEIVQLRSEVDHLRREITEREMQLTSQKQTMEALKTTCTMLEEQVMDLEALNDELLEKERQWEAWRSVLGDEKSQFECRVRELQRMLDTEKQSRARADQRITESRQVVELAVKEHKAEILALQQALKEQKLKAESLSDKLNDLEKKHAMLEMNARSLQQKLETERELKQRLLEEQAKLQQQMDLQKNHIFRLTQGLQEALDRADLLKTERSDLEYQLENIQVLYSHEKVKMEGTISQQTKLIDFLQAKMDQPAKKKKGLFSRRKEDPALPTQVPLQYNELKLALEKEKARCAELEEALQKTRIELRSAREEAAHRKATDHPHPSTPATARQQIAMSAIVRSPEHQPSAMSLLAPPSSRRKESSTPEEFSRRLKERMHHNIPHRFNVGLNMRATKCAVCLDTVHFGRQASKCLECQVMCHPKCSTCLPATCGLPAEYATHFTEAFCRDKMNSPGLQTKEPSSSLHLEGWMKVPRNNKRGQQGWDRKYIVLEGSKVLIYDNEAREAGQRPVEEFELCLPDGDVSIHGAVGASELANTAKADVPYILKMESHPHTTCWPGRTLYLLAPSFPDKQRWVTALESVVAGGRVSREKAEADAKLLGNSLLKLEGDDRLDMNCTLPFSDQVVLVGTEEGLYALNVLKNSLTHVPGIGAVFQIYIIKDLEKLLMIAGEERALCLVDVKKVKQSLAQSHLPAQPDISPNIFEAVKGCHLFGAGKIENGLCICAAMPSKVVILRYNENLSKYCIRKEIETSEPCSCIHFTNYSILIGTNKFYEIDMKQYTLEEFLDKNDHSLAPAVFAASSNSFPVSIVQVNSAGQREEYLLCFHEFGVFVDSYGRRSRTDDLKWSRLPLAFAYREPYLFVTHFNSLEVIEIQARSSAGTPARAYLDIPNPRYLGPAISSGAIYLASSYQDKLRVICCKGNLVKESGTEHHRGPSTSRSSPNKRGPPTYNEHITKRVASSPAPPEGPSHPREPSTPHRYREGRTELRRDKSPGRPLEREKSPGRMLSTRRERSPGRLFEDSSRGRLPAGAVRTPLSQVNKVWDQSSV
Chain of Ephrin type-A receptor 2 (P29317 whole entry): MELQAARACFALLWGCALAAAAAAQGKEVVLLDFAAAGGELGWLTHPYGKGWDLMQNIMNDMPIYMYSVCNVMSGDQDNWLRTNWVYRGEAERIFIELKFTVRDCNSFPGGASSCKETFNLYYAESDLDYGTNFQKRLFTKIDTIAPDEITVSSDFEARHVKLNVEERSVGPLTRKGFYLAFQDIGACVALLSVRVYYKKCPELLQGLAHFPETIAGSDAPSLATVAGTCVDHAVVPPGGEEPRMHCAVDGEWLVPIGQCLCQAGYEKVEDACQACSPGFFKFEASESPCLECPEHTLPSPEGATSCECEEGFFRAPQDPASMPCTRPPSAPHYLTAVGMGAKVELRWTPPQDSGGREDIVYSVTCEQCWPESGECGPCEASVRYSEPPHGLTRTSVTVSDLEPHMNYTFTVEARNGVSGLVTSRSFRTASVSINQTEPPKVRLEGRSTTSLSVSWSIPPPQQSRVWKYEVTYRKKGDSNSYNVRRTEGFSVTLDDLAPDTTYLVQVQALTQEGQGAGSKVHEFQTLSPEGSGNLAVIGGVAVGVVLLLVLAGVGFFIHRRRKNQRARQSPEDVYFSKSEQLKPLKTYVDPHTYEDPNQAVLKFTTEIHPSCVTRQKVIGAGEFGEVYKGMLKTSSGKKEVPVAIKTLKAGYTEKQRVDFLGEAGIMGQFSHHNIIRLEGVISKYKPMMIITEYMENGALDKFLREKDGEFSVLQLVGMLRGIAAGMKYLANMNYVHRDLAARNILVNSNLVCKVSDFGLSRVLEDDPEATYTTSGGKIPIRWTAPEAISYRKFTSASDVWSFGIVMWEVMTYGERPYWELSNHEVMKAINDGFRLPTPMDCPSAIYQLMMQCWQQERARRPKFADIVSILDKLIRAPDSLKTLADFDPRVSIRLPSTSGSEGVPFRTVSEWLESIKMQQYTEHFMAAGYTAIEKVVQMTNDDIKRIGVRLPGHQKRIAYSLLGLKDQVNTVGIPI
Chain of DnaJ homolog subfamily A member 1 (P31689 whole entry): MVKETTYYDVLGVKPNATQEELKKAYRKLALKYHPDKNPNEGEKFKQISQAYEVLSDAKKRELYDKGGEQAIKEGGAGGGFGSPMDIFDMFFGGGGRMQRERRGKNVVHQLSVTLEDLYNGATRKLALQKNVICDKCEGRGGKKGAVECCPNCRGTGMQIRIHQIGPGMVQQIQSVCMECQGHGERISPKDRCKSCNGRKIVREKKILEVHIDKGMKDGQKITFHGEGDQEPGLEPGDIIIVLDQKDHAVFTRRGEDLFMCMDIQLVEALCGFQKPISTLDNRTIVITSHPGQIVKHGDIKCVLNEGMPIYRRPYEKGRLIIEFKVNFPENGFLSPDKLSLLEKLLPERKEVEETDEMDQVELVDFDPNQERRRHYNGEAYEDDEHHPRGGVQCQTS
Chain of LIM domain kinase 2 (P53671 whole entry, the tested form may be a part): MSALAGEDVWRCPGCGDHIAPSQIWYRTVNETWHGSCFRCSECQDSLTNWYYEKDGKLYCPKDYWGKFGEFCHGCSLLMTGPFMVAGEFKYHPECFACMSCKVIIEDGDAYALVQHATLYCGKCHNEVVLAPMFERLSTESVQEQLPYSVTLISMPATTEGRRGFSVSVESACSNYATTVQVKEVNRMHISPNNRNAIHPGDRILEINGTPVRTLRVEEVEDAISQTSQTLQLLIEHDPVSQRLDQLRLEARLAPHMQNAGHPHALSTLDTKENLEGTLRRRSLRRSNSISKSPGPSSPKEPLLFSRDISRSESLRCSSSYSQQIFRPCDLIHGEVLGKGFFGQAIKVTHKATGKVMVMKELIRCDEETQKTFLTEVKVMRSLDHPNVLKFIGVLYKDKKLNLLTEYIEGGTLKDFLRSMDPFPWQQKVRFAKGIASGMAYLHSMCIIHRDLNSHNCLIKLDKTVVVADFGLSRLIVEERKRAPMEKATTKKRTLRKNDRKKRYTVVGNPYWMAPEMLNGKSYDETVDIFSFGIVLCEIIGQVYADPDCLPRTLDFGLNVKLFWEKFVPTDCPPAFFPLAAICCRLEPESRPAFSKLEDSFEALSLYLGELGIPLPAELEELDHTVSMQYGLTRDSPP
Chain of Guanine nucleotide-binding protein G(i) subunit alpha-2 (P04899 whole entry): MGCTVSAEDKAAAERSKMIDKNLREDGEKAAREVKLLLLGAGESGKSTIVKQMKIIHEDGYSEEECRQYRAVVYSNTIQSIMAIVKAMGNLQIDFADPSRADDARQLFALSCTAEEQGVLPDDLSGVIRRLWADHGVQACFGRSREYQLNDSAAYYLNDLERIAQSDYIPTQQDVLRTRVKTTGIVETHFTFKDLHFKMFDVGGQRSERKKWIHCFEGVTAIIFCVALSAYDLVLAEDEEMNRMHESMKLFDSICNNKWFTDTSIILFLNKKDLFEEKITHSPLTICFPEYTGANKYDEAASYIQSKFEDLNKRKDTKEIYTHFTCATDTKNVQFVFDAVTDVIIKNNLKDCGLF

Compound	Kd (Obg-like ATPase 1)	Kd [1]	Kd [2]	Kd [3]	Kd [4]	Kd [5]	Kd [6]	Kd [7]	Kd (Ephrin type-A receptor 2)	Kd (Actin-related protein 2)	Kd (LIM domain kinase 2)
COc1cc2c(Nc3ccc(Cl)c(Cl)c3F)ncnc2cc1OC[C@@H]1C[C@@H]2CN(C)C[C@@H]2C1 [TESEVATINIB]	> 30 µM (inactive)	> 30 µM (inactive)	> 30 µM (inactive)	> 30 µM (inactive)	> 30 µM (inactive)	> 30 µM (inactive)	> 30 µM (inactive)	> 30 µM (inactive)	0.501 µM (active)	> 30 µM (inactive)	> 30 µM (inactive)
O=C1NC(=O)[C@@H](c2cn3c4c(cccc24)CCC3)[C@@H]1c1c[nH]c2ccccc12 [TIVANTINIB]	> 30 µM (inactive)	> 30 µM (inactive)	> 30 µM (inactive)	> 30 µM (inactive)	> 30 µM (inactive)	> 30 µM (inactive)	> 30 µM (inactive)	> 30 µM (inactive)	> 30 µM (inactive)	> 30 µM (inactive)	> 30 µM (inactive)
C[C@@H](NC(=O)c1ncnc(N)c1Cl)c1ncc(C(=O)Nc2cc(C(F)(F)F)c(Cl)cn2)s1 [TOVORAFENIB]	> 30 µM (inactive)	> 30 µM (inactive)	> 30 µM (inactive)	> 30 µM (inactive)	> 30 µM (inactive)	> 30 µM (inactive)	> 30 µM (inactive)	> 30 µM (inactive)	0.807 µM (active)	> 30 µM (inactive)	> 30 µM (inactive)
